From patent US20140058103A1, “Inhibitors of PI3K-Delta and Methods of Their Use and Manufacture” (Exelixis, Inc., priority 2010, published 2014)

target: PI3K delta (Homo sapiens, UniProt O00329); assay: Luciferase-coupled chemiluminescence kinase assay (ATP consumption, KinaseGlo); format: biochemical
In short: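 ATP consumption measured by KinaseGlo luciferase chemiluminescence after a 2 h reaction at ambient temperature, with ATP at or below the kinase KM. Ten inhibitor concentrations per curve; IC50 from four-parameter nonlinear regression.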

Chain of PI3K delta (O00329 whole entry): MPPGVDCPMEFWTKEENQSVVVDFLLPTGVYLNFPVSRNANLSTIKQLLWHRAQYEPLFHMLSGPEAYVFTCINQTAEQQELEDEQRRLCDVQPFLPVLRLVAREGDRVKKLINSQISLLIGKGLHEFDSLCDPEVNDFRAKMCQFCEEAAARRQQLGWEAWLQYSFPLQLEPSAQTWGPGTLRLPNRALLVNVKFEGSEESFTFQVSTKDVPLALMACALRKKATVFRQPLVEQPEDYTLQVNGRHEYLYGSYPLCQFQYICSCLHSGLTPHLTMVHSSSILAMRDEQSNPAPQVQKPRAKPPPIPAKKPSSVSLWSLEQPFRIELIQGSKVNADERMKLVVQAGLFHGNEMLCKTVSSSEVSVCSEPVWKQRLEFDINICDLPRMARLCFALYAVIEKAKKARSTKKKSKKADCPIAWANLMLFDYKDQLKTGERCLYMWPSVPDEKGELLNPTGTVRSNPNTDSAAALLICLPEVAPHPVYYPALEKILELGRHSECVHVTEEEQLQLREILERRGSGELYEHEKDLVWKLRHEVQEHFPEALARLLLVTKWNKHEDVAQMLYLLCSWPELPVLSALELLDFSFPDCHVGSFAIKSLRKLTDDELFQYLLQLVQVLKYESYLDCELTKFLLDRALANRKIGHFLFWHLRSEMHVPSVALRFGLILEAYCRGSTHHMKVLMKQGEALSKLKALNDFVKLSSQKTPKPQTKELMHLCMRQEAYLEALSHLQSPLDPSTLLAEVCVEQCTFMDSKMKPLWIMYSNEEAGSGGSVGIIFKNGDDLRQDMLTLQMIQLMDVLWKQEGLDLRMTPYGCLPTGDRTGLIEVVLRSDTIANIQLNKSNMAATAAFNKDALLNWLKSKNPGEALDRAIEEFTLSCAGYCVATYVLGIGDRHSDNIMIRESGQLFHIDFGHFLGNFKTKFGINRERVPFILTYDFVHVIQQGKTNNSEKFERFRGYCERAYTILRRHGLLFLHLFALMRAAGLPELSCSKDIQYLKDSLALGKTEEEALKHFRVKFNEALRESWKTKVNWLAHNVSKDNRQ
Chain of PI3K delta (P27986 whole entry partner): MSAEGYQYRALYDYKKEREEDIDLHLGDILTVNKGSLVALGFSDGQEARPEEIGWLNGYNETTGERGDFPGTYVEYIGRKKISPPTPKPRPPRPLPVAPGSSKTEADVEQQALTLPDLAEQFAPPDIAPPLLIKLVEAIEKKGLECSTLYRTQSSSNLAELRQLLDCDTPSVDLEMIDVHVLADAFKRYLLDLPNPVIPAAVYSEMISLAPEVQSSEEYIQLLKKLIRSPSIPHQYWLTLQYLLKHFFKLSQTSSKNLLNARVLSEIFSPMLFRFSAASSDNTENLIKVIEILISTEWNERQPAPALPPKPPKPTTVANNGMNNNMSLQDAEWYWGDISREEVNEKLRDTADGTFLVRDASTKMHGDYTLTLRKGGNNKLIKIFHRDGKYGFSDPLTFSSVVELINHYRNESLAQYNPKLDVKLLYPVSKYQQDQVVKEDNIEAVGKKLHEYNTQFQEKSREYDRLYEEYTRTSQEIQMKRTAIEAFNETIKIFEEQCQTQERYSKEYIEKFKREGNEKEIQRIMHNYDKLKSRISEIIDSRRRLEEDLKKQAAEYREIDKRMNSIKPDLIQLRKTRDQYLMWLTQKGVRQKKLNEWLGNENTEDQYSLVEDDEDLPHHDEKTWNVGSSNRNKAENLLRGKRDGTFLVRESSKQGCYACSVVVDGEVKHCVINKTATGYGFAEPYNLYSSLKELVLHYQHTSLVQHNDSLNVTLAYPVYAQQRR

Cc1c(-c2nc3c(N4CCC(n5c(=O)[nH]c6ccccc65)CC4)ncnc3n2C)cnn1C [Compound 241, 1-{1-[8-(1,5-dimethyl-1H-pyrazol-4-yl)-9-methyl-9H-purin-6-yl]piperidin-4-yl}-1,3-dihydro-2H-benzimidazol-2-one] and Cn1ncc(-c2nc3c(N4CCC(n5c(=O)[nH]c6ccccc65)CC4)ncnc3n2C)c1Cl [Compound 272, 1-{1-[8-(5-chloro-1-methyl-1H-pyrazol-4-yl)-9-methyl-9H-purin-6-yl]piperidin-4-yl}-1,3-dihydro-2H-benzimidazol-2-one] cannot be ordered by IC50: less than 50 nM for the first, less than 50 nM for the second.

First: Cc1[nH]ncc1-c1nc2c(N3CCC(n4c(=O)[nH]c5ccccc54)CC3)ncnc2n1C [Compound 242, 1-{1-[9-methyl-8-(5-methyl-1H-pyrazol-4-yl)-9H-purin-6-yl]piperidin-4-yl}-1,3-dihydro-2H-benzimidazol-2-one]
Second: Cn1c(-c2cn[nH]c2C(F)(F)F)nc2c(N3CCC(n4c(=O)[nH]c5ccccc54)CC3)ncnc21 [Compound 262, 1-(1-{9-methyl-8-[5-(trifluoromethyl)-1H-pyrazol-4-yl]-9H-purin-6-yl}piperidin-4-yl)-1,3-dihydro-2H-benzimidazol-2-one]
The IC50 of the first is lower: less than 50 nM for the first, 50 to 250 nM for the second.

CCn1c(-c2cnn(C)c2)nc2c(N3CCC(n4c(=O)[nH]c5ccccc54)CC3)ncnc21 [Compound 243, 1-{1-[9-ethyl-8-(1-methyl-1H-pyrazol-4-yl)-9H-purin-6-yl]piperidin-4-yl}-1,3-dihydro-2H-benzimidazol-2-one] and CCn1cc(-c2nc3c(N4CCC(n5c(=O)[nH]c6ccccc65)CC4)ncnc3n2CC)cn1 [Compound 244, 1-{1-[9-ethyl-8-(1-ethyl-1H-pyrazol-4-yl)-9H-purin-6-yl]piperidin-4-yl}-1,3-dihydro-2H-benzimidazol-2-one] cannot be ordered by IC50: less than 50 nM for the first, less than 50 nM for the second.

CCn1c(-c2cnn(C)c2)nc2c(N3CCC4(CC3)C(=O)Nc3ccccc34)ncnc21 [Compound 245, 1′-[9-ethyl-8-(1-methyl-1H-pyrazol-4-yl)-9H-purin-6-yl]spiro[indole-3,4′-piperidin]-2(1H)-one] and CCn1cc(-c2nc3c(N4CCC5(CC4)C(=O)Nc4ccccc45)ncnc3n2CC)cn1 [Compound 250, 1′-[9-ethyl-8-(1-ethyl-1H-pyrazol-4-yl)-9H-purin-6-yl]spiro[indole-3,4′-piperidin]-2(1H)-one] cannot be ordered by IC50: less than 50 nM for the first, less than 50 nM for the second.

Cc1c(-c2nc3c(N4CCC5(CC4)C(=O)Nc4ccccc45)ncnc3n2C)cnn1C [Compound 246, 1′-[8-(1,5-dimethyl-1H-pyrazol-4-yl)-9-methyl-9H-purin-6-yl]spiro[indole-3,4′-piperidin]-2(1H)-one] and CCn1c(-c2cnn(C)c2C)nc2c(N3CCC4(CC3)C(=O)Nc3ccccc34)ncnc21 [Compound 261, 1′-[8-(1,5-dimethyl-1H-pyrazol-4-yl)-9-ethyl-9H-purin-6-yl]spiro[indole-3,4′-piperidin]-2(1H)-one] cannot be ordered by IC50: less than 50 nM for the first, less than 50 nM for the second.

Cc1[nH]ncc1-c1nc2c(N3CCC4(CC3)C(=O)Nc3ccccc34)ncnc2n1C [Compound 247, 1′-[9-methyl-8-(5-methyl-1H-pyrazol-4-yl)-9H-purin-6-yl]spiro[indole-3,4′-piperidin]-2(1H)-one] and CCn1c(-c2cn[nH]c2)nc2c(N3CCC4(CC3)C(=O)Nc3ccccc34)ncnc21 [Compound 252, 1′-[9-ethyl-8-(1H-pyrazol-4-yl)-9H-purin-6-yl]spiro[indole-3,4′-piperidin]-2(1H)-one] cannot be ordered by IC50: less than 50 nM for the first, less than 50 nM for the second.

First: Cn1c(C(=O)NCC2CC2)nc2c(N3CCC(N4C(=O)NCc5ccccc54)CC3)ncnc21 [Compound 248, N-(cyclopropylmethyl)-9-methyl-6-[4-(2-oxo-3,4-dihydroquinazolin-1(2H)-yl)piperidin-1-yl]-9H-purine-8-carboxamide]
Second: Cn1c(C(=O)NCC2CC2)nc2c(N3CCC(n4c(=O)[nH]c5c(F)cccc54)CC3)ncnc21 [Compound 278, N-(cyclopropylmethyl)-6-[4-(4-fluoro-2-oxo-2,3-dihydro-1H-benzimidazol-1-yl)piperidin-1-yl]-9-methyl-9H-purine-8-carboxamide]
The IC50 of the first is higher: 250 to 500 nM for the first, 50 to 250 nM for the second.

First: Cn1c(C(=O)NCC2CC2)nc2c(N3CCC4(CC3)Nc3ccccc3NC4=O)ncnc21 [Compound 249, N-(cyclopropylmethyl)-9-methyl-6-(3′-oxo-3′,4′-dihydro-1H,1′H-spiro[piperidine-4,2′-quinoxalin]-1-yl)-9H-purine-8-carboxamide]
Second: Cn1c(C(=O)NCC2CC2)nc2c(N3CCC(C#N)(c4ccccc4)CC3)ncnc21 [Compound 275, 6-(4-cyano-4-phenylpiperidin-1-yl)-N-(cyclopropylmethyl)-9-methyl-9H-purine-8-carboxamide]
The IC50 of the first is higher: 500 to 1500 nM for the first, 50 to 250 nM for the second.

First: CCCn1cc(-c2nc3c(N4CCC5(CC4)C(=O)Nc4ccccc45)ncnc3n2CC)cn1 [Compound 251, 1′-[9-ethyl-8-(1-propyl-1H-pyrazol-4-yl)-9H-purin-6-yl]spiro[indole-3,4′-piperidin]-2(1H)-one]
Second: Cn1cc(-c2nc3c(N4CCC(C#N)(c5ccccc5)CC4)ncnc3n2C)cn1 [Compound 263, 1-[9-Methyl-8-(1-methyl-1H-pyrazol-4-yl)-9H-purin-6-yl]-4-phenylpiperidine-4-carbonitrile]
The IC50 of the first is lower: less than 50 nM for the first, 50 to 250 nM for the second. The first is the more potent here.

First: Cn1c(C(=O)NCC2CC2)nc2c(N3CCCC(n4c(=O)[nH]c5ccccc54)C3)ncnc21 (stereo not shown) [Compound 256, N-(cyclopropylmethyl)-9-methyl-6-[3-(2-oxo-2,3-dihydro-1H-benzimidazol-1-yl)piperidin-1-yl]-9H-purine-8-carboxamide]
Second: CC1CC(n2c(=O)[nH]c3ccccc32)CCN1c1ncnc2c1nc(C(=O)NCC1CC1)n2C (stereo not shown) [Compound 277, N-(cyclopropylmethyl)-9-methyl-6-[2-methyl-4-(2-oxo-2,3-dihydro-1H-benzimidazol-1-yl)piperidin-1-yl]-9H-purine-8-carboxamide]
The IC50 of the first is higher: 250 to 500 nM for the first, 50 to 250 nM for the second.

Compared with Cn1c(-n2cnc3ccccc32)nc2c(N3CCC(n4c(=O)[nH]c5ccccc54)CC3)ncnc21 [Compound 259, 1-{1-[8-(1H-benzimidazol-1-yl)-9-methyl-9H-purin-6-yl]piperidin-4-yl}-1,3-dihydro-2H-benzimidazol-2-one], Cn1c(-c2ccccc2)nc2c(N3CCC(n4c(=O)[nH]c5ccccc54)CC3)ncnc21 [Compound 267, 1-[1-(9-methyl-8-phenyl-9H-purin-6-yl)piperidin-4-yl]-1,3-dihydro-2H-benzimidazol-2-one] is higher in IC50: less than 50 nM for the first, 500 to 1500 nM for the second. The first is the more potent here.

Compared with CCn1c(-c2cnn(C)c2C)nc2c(N3CCC(n4c(=O)[nH]c5ccccc54)CC3)ncnc21 [Compound 260, 1-{1-[8-(1,5-dimethyl-1H-pyrazol-4-yl)-9-ethyl-9H-purin-6-yl]piperidin-4-yl}-1,3-dihydro-2H-benzimidazol-2-one], Cn1c(-c2ccoc2)nc2c(N3CCC(n4c(=O)[nH]c5ccccc54)CC3)ncnc21 [Compound 265, 1-[1-(8-furan-3-yl-9-methyl-9H-purin-6-yl)piperidin-4-yl]-1,3-dihydro-2H-benzimidazol-2-one] is higher in IC50: less than 50 nM for the first, 50 to 250 nM for the second. The first is the more potent here.

First: Cn1c(C(=O)NCC2CC2)nc2c(N3CCN(C4=NS(=O)(=O)c5ccccc54)CC3)ncnc21 [Compound 264, N-(cyclopropylmethyl)-6-[4-(1,1-dioxido-1,2-benzisothiazol-3-yl)piperazin-1-yl]-9-methyl-9H-purine-8-carboxamide]
Second: Cn1c(C(=O)NCC(C)(C)O)nc2c(N3CCC(n4c(=O)[nH]c5ccccc54)CC3)ncnc21 [Compound 273, N-(2-hydroxy-2-methylpropyl)-9-methyl-6-[4-(2-oxo-2,3-dihydro-1H-benzimidazol-1-yl)piperidin-1-yl]-9H-purine-8-carboxamide]
The IC50 of the first is higher: 500 to 1500 nM for the first, less than 50 nM for the second.

Compared with Cn1c(-c2ccncc2)nc2c(N3CCC(n4c(=O)[nH]c5ccccc54)CC3)ncnc21 [Compound 266, 1-[1-(9-methyl-8-pyridin-4-yl-9H-purin-6-yl)piperidin-4-yl]-1,3-dihydro-2H-benzimidazol-2-one], Cn1c(-c2cccnc2)nc2c(N3CCC(n4c(=O)[nH]c5ccccc54)CC3)ncnc21 [Compound 268, 1-[1-(9-Methyl-8-pyridin-3-yl-9H-purin-6-yl)piperidin-4-yl]-1,3-dihydro-2H-benzimidazol-2-one] is lower in IC50: 250 to 500 nM for the first, less than 50 nM for the second. The second is the more potent here.

Cn1cc(-c2nc3c(N4CCC(n5c(=O)[nH]c6ncccc65)CC4)ncnc3n2C)cn1 [Compound 269, 1-{1-[9-methyl-8-(1-methyl-1H-pyrazol-4-yl)-9H-purin-6-yl]piperidin-4-yl}-1,3-dihydro-2H-imidazo[4,5-b]pyridin-2-one] and Cn1c(-c2cncnc2)nc2c(N3CCC(n4c(=O)[nH]c5ccccc54)CC3)ncnc21 [Compound 271, 1-[1-(9-methyl-8-pyrimidin-5-yl-9H-purin-6-yl)piperidin-4-yl]-1,3-dihydro-2H-benzimidazol-2-one] cannot be ordered by IC50: less than 50 nM for the first, less than 50 nM for the second.

First: CCn1c(C(=O)NCC2CC2)nc2c(N3CCC(n4c(=O)[nH]c5ncccc54)CC3)ncnc21 [Compound 270, N-(cyclopropylmethyl)-9-ethyl-6-[4-(2-oxo-2,3-dihydro-1H-imidazo[4,5-b]pyridin-1-yl)piperidin-1-yl]-9H-purine-8-carboxamide]
Second: CN(C)CCOc1cccc2c1[nH]c(=O)n2C1CCN(c2ncnc3c2nc(C(=O)NCC2CC2)n3C)CC1 [Compound 276, N-(cyclopropylmethyl)-6-[4-(4-{[2-(dimethylamino)ethyl]oxy}-2-oxo-2,3-dihydro-1H-benzimidazol-1-yl)piperidin-1-yl]-9-methyl-9H-purine-8-carboxamide]
The IC50 of the first is lower: less than 50 nM for the first, 250 to 500 nM for the second.

First: COC(=O)C1(c2ccccc2)CCN(c2ncnc3c2nc(-c2cnn(C)c2)n3C)CC1 [Compound 274, methyl 1-[9-methyl-8-(1-methyl-1H-pyrazol-4-yl)-9H-purin-6-yl]-4-phenylpiperidine-4-carboxylate]
Second: Cn1c(-c2ccc(C(F)(F)F)nc2)nc2c(N3CCC(n4c(=O)[nH]c5ccccc54)CC3)ncnc21 [Compound 279, 1-(1-{9-methyl-8-[6-(trifluoromethyl)pyridin-3-yl]-9H-purin-6-yl}piperidin-4-yl)-1,3-dihydro-2H-benzimidazol-2-one]
The IC50 of the first is higher: 500 to 1500 nM for the first, less than 50 nM for the second. The second is the more potent here.
